Laboratory results taken from US20220169629A1, “PESTICIDALLY ACTIVE DIAZINE-AMIDE COMPOUNDS” (SYNGENTA CROP PROTECTION AG, priority 2019, published 2022).

Assays:
Type in all cases: in vivo
[1] = tested on: Diabrotica balteata (corn root worm); test: Example B1: Diabrotica balteata (corn root worm), sprayed maize sprouts, L2 larvae; settings: 96 h, application rate of 200 ppm, 4 days after infestation, L2 larvae on maize sprouts, read-out: control in at least one of the two categories (mortality or growth inhibition)
Procedure: Example B1: Diabrotica Balteata (Corn Root Worm)
Maize sprouts placed onto an agar layer in 24-well microtiter plates were treated with aqueous test solutions prepared from 10′000 ppm DMSO stock solutions by spraying. After drying, the plates were infested with L2 larvae (6 to 10 per well). The samples were assessed for mortality and growth inhibition in comparison to untreated samples 4 days after infestation.

[2] = tested on: Chilo suppressalis (striped rice stemborer); test: Example B4: Chilo suppressalis (striped rice stemborer), artificial diet, L2 larvae; settings: 144 h, application rate of 200 ppm, 6 days after infestation, L2 larvae on artificial diet, read-out: control in at least one of the three categories (mortality, anti-feeding or growth inhibition)
Procedure: Example B4: Chilo suppressalis (Striped rice stemborer)
24-well microtiter plates with artificial diet were treated with aqueous test solutions prepared from 10′000 ppm DMSO stock solutions by pipetting. After drying, the plates were infested with L2 larvae (6-8 per well). The samples were assessed for mortality, anti-feeding effect, and growth inhibition in comparison to untreated samples 6 days after infestation. Control of Chilo suppressalis by a test sample is given when at least one of the categories mortality, anti-feedant effect, and growth inhibition is higher than the untreated sample.

[3] = tested on: Plutella xylostella (diamond back moth); test: Example B5: Plutella xylostella (diamond back moth), artificial diet, 24-well, eggs; settings: 192 h, application rate of 200 ppm, 8 days after infestation, read-out: control in at least one of the two categories (mortality or growth inhibition)
Procedure: Example B5: Plutella xylostella (Diamond Back Moth)
24-well microtiter plates with artificial diet were treated with aqueous test solutions prepared from 10′000 ppm DMSO stock solutions by pipetting. After drying, Plutella eggs were pipetted through a plastic stencil onto a gel blotting paper and the plate was closed with it. The samples were assessed for mortality and growth inhibition in comparison to untreated samples 8 days after infestation.

[4] = tested on: Spodoptera littoralis (Egyptian cotton leaf worm); test: Example B7: Spodoptera littoralis (Egyptian cotton leaf worm), sprayed cotton leaf discs, L1 larvae; settings: foliar, 72 h, application rate of 200 ppm, 3 days after infestation, L1 larvae on cotton leaf discs, read-out: control in at least one of the three categories (mortality, anti-feeding or growth inhibition)
Procedure: Example B7: Spodoptera littoralis (Egyptian Cotton Leaf Worm)
Cotton leaf discs were placed onto agar in 24-well microtiter plates and sprayed with aqueous test solutions prepared from 10′000 ppm DMSO stock solutions. After drying the leaf discs were infested with five L1 larvae. The samples were assessed for mortality, anti-feeding effect, and growth inhibition in comparison to untreated samples 3 days after infestation. Control of Spodoptera littoralis by a test sample is given when at least one of the categories mortality, anti-feedant effect, and growth inhibition is higher than the untreated sample.

[5] = tested on: Plutella xylostella (diamondback moth); test: Example B10: Plutella xylostella (diamondback moth), 96-well artificial diet; settings: 216 h, application rate of 500 ppm, 9 days after infestation, eggs/L1 larvae
Procedure: Example B10: Plutella xylostella (Diamondback Moth)
96-well microtiter plates containing artificial diet were treated with aqueous test solutions, prepared from 10′000 ppm DMSO stock solutions, by a liquid handling robot. After drying, eggs (˜30 per well) were infested onto a netted lid which was suspended above the diet. The eggs hatch and L1 larvae move down to the diet. The samples were assessed for mortality 9 days after infestation.

CC(NC(=O)c1cc(OC(F)F)cc(C(F)(F)F)c1)c1nccnc1-c1ccc(OC(F)F)cn1 (stereo not shown) [Compound P4, 3-(difluoromethoxy)-N-[1-[3-[5-(difluoromethoxy)-2-pyridyl]pyrazin-2-yl]ethyl]-5-(trifluoromethyl)benzamide]
≥ 80%: percent control (mortality or growth inhibition) at 200 ppm [1] | control at 200 ppm [2] | percent control (mortality or growth inhibition) at 200 ppm [3] | percent control (mortality, anti-feeding or growth inhibition) at 200 ppm [4]

CC(NC(=O)c1cc(Cl)cc(C(F)(F)F)c1)c1nccnc1-c1ccc(OC(F)F)cn1 (stereo not shown) [Compound P8, 3-chloro-N-[1-[3-[5-(difluoromethoxy)-2-pyridyl]pyrazin-2-yl]ethyl]-5-(trifluoromethyl)benzamide]
≥ 80%: percent control (mortality or growth inhibition) at 200 ppm [1] | control at 200 ppm [2] | percent control (mortality or growth inhibition) at 200 ppm [3] | percent control (mortality, anti-feeding or growth inhibition) at 200 ppm [4]

CC(NC(=O)c1cc(OCC(F)(F)F)cc(C(F)(F)F)c1)c1nccnc1-c1ncc(OCC(F)F)cn1 (stereo not shown) [Compound P38, N-[1-[3-[5-(2,2-difluoroethoxy)pyrimidin-2-yl]pyrazin-2-yl]ethyl]-3-(2,2,2-trifluoroethoxy)-5-(trifluoromethyl)benzamide]
≥ 80%: control at 200 ppm [2] | percent control (mortality or growth inhibition) at 200 ppm [3] | percent control (mortality, anti-feeding or growth inhibition) at 200 ppm [4]

CC(NC(=O)c1cc(OCC(F)(F)F)cc(C(F)(F)F)c1)c1nccnc1-c1ccc(OCC(F)(F)F)cn1 (stereo not shown) [Compound P14, 3-(2,2,2-trifluoroethoxy)-N-[1-[3-[5-(2,2,2-trifluoroethoxy)-2-pyridyl]pyrazin-2-yl]ethyl]-5-(trifluoromethyl)benzamide]
≥ 80%: mortality at 500 ppm [5] | control at 200 ppm [2] | percent control (mortality or growth inhibition) at 200 ppm [3]

CC(NC(=O)c1cc(OCC(F)F)cc(C(F)(F)F)c1)c1nccnc1-c1ccc(OC(F)F)cn1 (stereo not shown) [Compound P2, 3-(2,2-difluoroethoxy)-N-[1-[3-[5-(difluoromethoxy)-2-pyridyl]pyrazin-2-yl]ethyl]-5-(trifluoromethyl)benzamide]
≥ 80%: control at 200 ppm [2] | percent control (mortality or growth inhibition) at 200 ppm [3] | percent control (mortality, anti-feeding or growth inhibition) at 200 ppm [4]

CC(NC(=O)c1cc(Cl)cc(C(F)(F)F)c1)c1nccnc1-c1ccc(C#N)cn1 (stereo not shown) [Compound P7, 3-chloro-N-[1-[3-(5-cyano-2-pyridyl)pyrazin-2-yl]ethyl]-5-(trifluoromethyl)benzamide]
≥ 80%: percent control (mortality or growth inhibition) at 200 ppm [1] | control at 200 ppm [2] | percent control (mortality or growth inhibition) at 200 ppm [3] | percent control (mortality, anti-feeding or growth inhibition) at 200 ppm [4]

CC(NC(=O)c1cc(Cl)cc(C(F)(F)F)c1)c1nccnc1-c1ccc(OCC(F)F)cn1 (stereo not shown) [Compound P20, 3-chloro-N-[1-[3-[5-(2,2-difluoroethoxy)-2-pyridyl]pyrazin-2-yl]ethyl]-5-(trifluoromethyl)benzamide]
≥ 80%: mortality at 500 ppm [5] | control at 200 ppm [2] | percent control (mortality or growth inhibition) at 200 ppm [3] | percent control (mortality, anti-feeding or growth inhibition) at 200 ppm [4]

CC(NC(=O)c1cc(OCC(F)F)cc(C(F)(F)F)c1)c1nccnc1-c1ccc(OCC(F)(F)F)cn1 (stereo not shown) [Compound P17, 3-(2,2-difluoroethoxy)-N-[1-[3-[5-(2,2,2-trifluoroethoxy)-2-pyridyl]pyrazin-2-yl]ethyl]-5-(trifluoromethyl)benzamide]
≥ 80%: mortality at 500 ppm [5] | percent control (mortality or growth inhibition) at 200 ppm [3] | percent control (mortality, anti-feeding or growth inhibition) at 200 ppm [4]

CC(NC(=O)c1cc(OCC(F)F)cc(C(F)(F)F)c1)c1nccnc1-c1ncc(OCC(F)F)cn1 (stereo not shown) [Compound P32, 3-(2,2-difluoroethoxy)-N-[1-[3-[5-(2,2-difluoroethoxy)pyrimidin-2-yl]pyrazin-2-yl]ethyl]-5-(trifluoromethyl)benzamide]
≥ 80%: control at 200 ppm [2] | percent control (mortality or growth inhibition) at 200 ppm [3] | percent control (mortality, anti-feeding or growth inhibition) at 200 ppm [4]

CC(NC(=O)c1cc(OC(F)F)cc(C(F)(F)F)c1)c1nccnc1-c1ccc(OCC(F)(F)F)cn1 (stereo not shown) [Compound P12, 3-(difluoromethoxy)-N-[1-[3-[5-(2,2,2-trifluoroethoxy)-2-pyridyl]pyrazin-2-yl]ethyl]-5-(trifluoromethyl)benzamide]
≥ 80%: mortality at 500 ppm [5] | control at 200 ppm [2] | percent control (mortality or growth inhibition) at 200 ppm [3] | percent control (mortality, anti-feeding or growth inhibition) at 200 ppm [4]

CC(NC(=O)c1cc(Br)cc(C(F)(F)F)c1)c1nccnc1-c1ncc(OCC(F)(F)F)cn1 (stereo not shown) [Compound P9, 3-bromo-N-[1-[3-[5-(2,2,2-trifluoroethoxy)pyrimidin-2-yl]pyrazin-2-yl]ethyl]-5-(trifluoromethyl)benzamide]
≥ 80%: percent control (mortality or growth inhibition) at 200 ppm [1] | control at 200 ppm [2] | percent control (mortality or growth inhibition) at 200 ppm [3] | percent control (mortality, anti-feeding or growth inhibition) at 200 ppm [4]

CC(NC(=O)c1cc(Cl)cc(C(F)(F)F)c1)c1nccnc1-c1ncc(OCC(F)F)cn1 (stereo not shown) [Compound P36, 3-chloro-N-[1-[3-[5-(2,2-difluoroethoxy)pyrimidin-2-yl]pyrazin-2-yl]ethyl]-5-(trifluoromethyl)benzamide]
≥ 80%: percent control (mortality or growth inhibition) at 200 ppm [3] | percent control (mortality, anti-feeding or growth inhibition) at 200 ppm [4]

CC(NC(=O)c1cc(C(F)(F)F)cc(C(F)(F)F)c1)c1nccnc1-c1ccc(C#N)cn1 (stereo not shown) [Compound P31, N-[1-[3-(5-cyano-2-pyridyl)pyrazin-2-yl]ethyl]-3,5-bis(trifluoromethyl)benzamide]
≥ 80%: mortality at 500 ppm [5] | control at 200 ppm [2] | percent control (mortality or growth inhibition) at 200 ppm [3] | percent control (mortality, anti-feeding or growth inhibition) at 200 ppm [4]

CC(NC(=O)c1cc(Br)cc(C(F)(F)F)c1)c1nccnc1-c1ccc(C#N)cn1 (stereo not shown) [Compound P10, 3-bromo-N-[1-[3-(5-cyano-2-pyridyl)pyrazin-2-yl]ethyl]-5-(trifluoromethyl)benzamide]
≥ 80%: percent control (mortality or growth inhibition) at 200 ppm [1] | control at 200 ppm [2] | percent control (mortality or growth inhibition) at 200 ppm [3] | percent control (mortality, anti-feeding or growth inhibition) at 200 ppm [4]

CC(NC(=O)c1cc(Br)cc(C(F)(F)F)c1)c1nccnc1-c1ccc(OCC(F)(F)F)cn1 (stereo not shown) [Compound P18, 3-bromo-N-[1-[3-[5-(2,2,2-trifluoroethoxy)-2-pyridyl]pyrazin-2-yl]ethyl]-5-(trifluoromethyl)benzamide]
≥ 80%: mortality at 500 ppm [5] | control at 200 ppm [2] | percent control (mortality or growth inhibition) at 200 ppm [3] | percent control (mortality, anti-feeding or growth inhibition) at 200 ppm [4]

CC(NC(=O)c1cc(OCC(F)(F)F)cc(C(F)(F)F)c1)c1nccnc1-c1ccc(OC(F)F)cn1 (stereo not shown) [Compound P6, N-[1-[3-[5-(difluoromethoxy)-2-pyridyl]pyrazin-2-yl]ethyl]-3-(2,2,2-trifluoroethoxy)-5-(trifluoromethyl)benzamide]
≥ 80%: percent control (mortality or growth inhibition) at 200 ppm [1] | control at 200 ppm [2] | percent control (mortality or growth inhibition) at 200 ppm [3] | percent control (mortality, anti-feeding or growth inhibition) at 200 ppm [4]

CC(NC(=O)c1cc(Br)cc(C(F)(F)F)c1)c1nccnc1-c1ccc(OC(F)F)cn1 (stereo not shown) [Compound P11, 3-bromo-N-[1-[3-[5-(difluoromethoxy)-2-pyridyl]pyrazin-2-yl]ethyl]-5-(trifluoromethyl)benzamide]
≥ 80%: percent control (mortality or growth inhibition) at 200 ppm [1] | control at 200 ppm [2] | percent control (mortality or growth inhibition) at 200 ppm [3] | percent control (mortality, anti-feeding or growth inhibition) at 200 ppm [4]
